Assay results taken from patent publication US7739055B2, “Methods and systems for generating and evaluating peptides” (priority 2005, dated 2010).
In brackets after ≈: the same amount, converted by molar mass. Like-named read-outs stand apart in the source and are kept apart here. Where a SMILES comes first, the peptide text is derived from it.

Columns and labels:
[1] = test system: Sterne strain of Bacillus anthracis
[2] = test system: Smith Diffuse strain of Staphylococcus aureus
[3] = first concentration that prohibits growth by OD at 24 hours, Table 1

Row | Molecule | MIC B. cereus (B. cereus; [3]) | MIC E. coli (Escherichia coli; [3]) | also measured
1 | CC[C@H](C)[C@H](NC(=O)[C@H](CCCCN)NC(=O)[C@H](CCCCN)NC(=O)[C@H](Cc1ccccc1)NC(=O)[C@H](CC(C)C)NC(=O)[C@H](CCCCN)NC(=O)[C@H](Cc1c[nH]c2ccccc12)NC(=O)[C@@H](N)CCCCN)C(=O)NCC(=O)N[C@@H](C)C(=O)N[C@H](C(=O)N[C@@H](CC(C)C)C(=O)N[C@@H](CCCCN)C(=O)N[C@H](C(=O)N[C@@H](CC(C)C)C(N)=O)C(C)C)C(C)C [Cec Mel Hyb, KWKLFKKIGAVLKVL-NH2] (H-KWKLFKKIGAVLKVL-NH2) | – | – | MIC B. anthracis [1]: 16 µg/mL (≈ 9.04 µM); MIC S. aureus ([2]; Smith Diffuse strain of): 4 µg/mL (≈ 2.26 µM); MIC B. cereus (B. cereus; 24 h): 8 µg/mL (≈ 4.52 µM)
2 | CC(C)C[C@H](NC(=O)CNC(=O)[C@H](Cc1ccccc1)NC(=O)[C@H](CC(C)C)NC(=O)[C@@H](N)Cc1ccccc1)C(=O)N[C@@H](C)C(=O)N[C@@H](CO)C(=O)N[C@@H](CCCCN)C(=O)N[C@H](C(=O)N[C@@H](Cc1ccccc1)C(=O)N1CCC[C@H]1C(=O)N[C@@H](C)C(=O)N[C@H](C(=O)N[C@@H](Cc1ccc(O)cc1)C(=O)N[C@@H](CS)C(=O)N[C@@H](CCCCN)C(=O)N[C@H](C(=O)N[C@H](C(=O)N[C@@H](CCCNC(=N)N)C(=O)N[C@@H](CCCCN)C(=O)O)[C@@H](C)O)C(C)C)C(C)C)C(C)C [Peptide 5] (H-FLFGLASKVFPAVYCKVTRK-OH; N-terminus and C-terminus assumed) | – | – | MIC B. anthracis [1]: 128 µg/mL (≈ 56.3 µM); MIC S. aureus ([2]; Smith Diffuse strain of): 256 µg/mL (≈ 113 µM); MIC B. cereus (B. cereus; 24 h): 256 µg/mL (≈ 113 µM); MIC E. coli (Escherichia coli; 24 h): 64 µg/mL (≈ 28.1 µM)
3 | CC[C@H](C)[C@H](NC(=O)[C@@H](NC(=O)[C@H](C)NC(=O)[C@@H]1CCCN1C(=O)[C@H](Cc1ccccc1)NC(=O)[C@@H](NC(=O)[C@H](CCCCN)NC(=O)[C@H](CO)NC(=O)[C@H](C)NC(=O)[C@@H](NC(=O)[C@H](CCCNC(=N)N)NC(=O)[C@H](Cc1ccccc1)NC(=O)[C@H](CC(C)C)NC(=O)[C@H](C)NC(=O)CNC(=O)[C@@H](N)CC(C)C)C(C)C)C(C)C)C(C)C)C(=O)N[C@@H](CO)C(=O)N[C@@H](CCSC)C(=O)N[C@H](C(=O)N[C@@H](CCCCN)C(=O)O)C(C)C [Peptide 22] (H-LGALFRVASKVFPAVISMVK-OH; N-terminus and C-terminus assumed) | – | – | MIC B. anthracis [1]: 64 µg/mL (≈ 30 µM); MIC S. aureus ([2]; Smith Diffuse strain of): 64 µg/mL (≈ 30 µM); MIC B. cereus (B. cereus; 24 h): 64 µg/mL (≈ 30 µM); MIC E. coli (Escherichia coli; 24 h): 256 µg/mL (≈ 120 µM)
4 | CC[C@H](C)[C@H](NC(=O)[C@H](CC(C)C)NC(=O)[C@H](C)NC(=O)[C@@H]1CCCN1C(=O)[C@H](Cc1ccccc1)NC(=O)[C@@H](NC(=O)[C@H](CCCCN)NC(=O)[C@H](CO)NC(=O)[C@H](C)NC(=O)[C@@H](NC(=O)[C@H](CCCNC(=N)N)NC(=O)[C@H](Cc1ccccc1)NC(=O)[C@@H](NC(=O)[C@@H](NC(=O)[C@@H]1CCCN1C(=O)[C@@H](N)CC(C)C)C(C)C)C(C)C)C(C)C)C(C)C)C(=O)N[C@@H](CO)C(=O)N[C@@H](CCCCN)C(=O)N[C@@H](CC(C)C)C(=O)N[C@H](C(=O)O)[C@@H](C)O [Peptide 35] (H-LPVVFRVASKVFPALISKLT-OH; N-terminus and C-terminus assumed) | – | – | MIC B. anthracis [1]: 128 µg/mL (≈ 58.6 µM); MIC S. aureus ([2]; Smith Diffuse strain of): 256 µg/mL (≈ 117 µM); MIC B. cereus (B. cereus; 24 h): 256 µg/mL (≈ 117 µM); MIC E. coli (Escherichia coli): + (key: +: MIC greater than 256 ug/mL; ++: MIC greater than 128 ug/mL, not sufficiently soluble to test as 256 ug/mL)
5 | CC(C)C[C@H](NC(=O)[C@H](C)NC(=O)[C@H](CO)NC(=O)[C@H](Cc1ccccc1)NC(=O)[C@@H](NC(=O)[C@H](CO)NC(=O)[C@@H]1CCCN1C(=O)[C@@H](NC(=O)[C@@H](NC(=O)[C@H](CCCCN)NC(=O)[C@H](CO)NC(=O)[C@H](C)NC(=O)[C@H](CC(C)C)NC(=O)[C@H](CCCCN)NC(=O)[C@H](Cc1ccccc1)NC(=O)[C@@H](NC(=O)[C@H](Cc1ccccc1)NC(=O)[C@@H](N)CO)C(C)C)C(C)C)C(C)C)C(C)C)C(=O)N[C@H](C(=O)N[C@@H](CCCNC(=N)N)C(=O)O)[C@@H](C)O [Peptide 43] (H-SFVFKLASKVVPSVFSALTR-OH; N-terminus and C-terminus assumed) | – | – | MIC B. anthracis [1]: 128 µg/mL; MIC S. aureus ([2]; Smith Diffuse strain of): 256 µg/mL; MIC B. cereus (B. cereus; 24 h): 256 µg/mL; MIC E. coli (Escherichia coli; 24 h): 256 µg/mL
6 | CC(C)C[C@H](NC(=O)[C@H](CCCCN)NC(=O)[C@H](Cc1ccccc1)NC(=O)[C@H](CC(C)C)NC(=O)[C@@H](NC(=O)[C@@H]1CCCN1C(=O)[C@@H](N)CC(C)C)C(C)C)C(=O)N[C@@H](C)C(=O)N[C@@H](CO)C(=O)N[C@@H](CCCCN)C(=O)N[C@H](C(=O)N[C@@H](Cc1ccccc1)C(=O)N1CCC[C@H]1C(=O)N[C@@H](C)C(=O)N[C@H](C(=O)N[C@@H](Cc1ccccc1)C(=O)N[C@@H](CO)C(=O)N[C@@H](CO)C(=O)N[C@@H](CC(C)C)C(=O)N[C@@H](CCCCN)C(=O)O)C(C)C)C(C)C [Peptide 63] (H-LPVLFKLASKVFPAVFSSLK-OH; N-terminus and C-terminus assumed) | – | – | MIC B. anthracis [1]: 128 µg/mL (≈ 58.4 µM); MIC S. aureus ([2]; Smith Diffuse strain of): 128 µg/mL (≈ 58.4 µM); MIC B. cereus (B. cereus; 24 h): 64 µg/mL (≈ 29.2 µM); MIC E. coli (Escherichia coli; 24 h): 256 µg/mL (≈ 117 µM)
7 | CC[C@H](C)[C@H](NC(=O)[C@H](CC(C)C)NC(=O)[C@H](C)NC(=O)[C@@H]1CCCN1C(=O)[C@H](C)NC(=O)[C@@H](NC(=O)[C@H](CCCCN)NC(=O)[C@@H](N)CCCNC(=N)N)C(C)C)C(=O)N[C@@H](CCCCN)C(=O)N[C@@H](CO)C(=O)N[C@@H](Cc1ccccc1)C(=O)N[C@H](C(=O)N[C@@H](Cc1ccccc1)C(=O)N[C@@H](CC(C)C)C(=O)N[C@@H](Cc1ccccc1)C(=O)N[C@@H](CCCCN)C(=O)N[C@@H](Cc1ccccc1)C(=O)N[C@@H](CCCCN)C(=O)N[C@@H](CCCCN)C(=O)NCC(=O)O)C(C)C [Shuffled 51] (H-RKVAPALIKSFVFLFKFKKG-OH; N-terminus and C-terminus assumed) | – | – | MIC B. anthracis [1]: 256 µg/mL (≈ 110 µM); MIC S. aureus ([2]; Smith Diffuse strain of): 128 µg/mL (≈ 55.1 µM); MIC E. coli (Escherichia coli): + (key: +: MIC greater than 256 ug/mL; ++: MIC greater than 128 ug/mL, not sufficiently soluble to test as 256 ug/mL)
8 | CC(C)C[C@H](NC(=O)[C@H](CC(C)C)NC(=O)[C@H](CO)NC(=O)[C@H](CCCCN)NC(=O)[C@H](CC(C)C)NC(=O)[C@@H]1CCCN1C(=O)[C@H](C)NC(=O)[C@H](Cc1ccccc1)NC(=O)[C@@H]1CCCN1C(=O)[C@H](CC(C)C)NC(=O)[C@@H](NC(=O)[C@H](CCCCN)NC(=O)[C@H](CCCCN)NC(=O)[C@@H](NC(=O)[C@H](CO)NC(=O)[C@@H](N)C(C)C)C(C)C)C(C)C)C(=O)N[C@@H](CO)C(=O)N[C@@H](Cc1ccccc1)C(=O)N[C@@H](C)C(=O)N[C@@H](Cc1ccccc1)C(=O)O [Shuffled 63] (H-VSVKKVLPFAPLKSLLSFAF-OH; N-terminus and C-terminus assumed) | – | – | MIC S. aureus ([2]; Smith Diffuse strain, Table 1): + (MIC greater than 256 ug/mL); MIC B. cereus (B. cereus; 24 h): 256 µg/mL (≈ 117 µM); MIC E. coli (Escherichia coli; 24 h): 256 µg/mL (≈ 117 µM)
9 | SSSIPIKMVLVRALVFVKSG [Shuffled 55] | + (MIC greater than 256 ug/mL) | + (MIC greater than 256 ug/mL) | –
10 | STVKVASKLAVVVSPISKGS [Shuffled 36] | + (MIC greater than 256 ug/mL) | + (MIC greater than 256 ug/mL) | –
11 | SVIGKIASKVVPSVYCAISK [Peptide 44] | + (MIC greater than 256 ug/mL) | + (MIC greater than 256 ug/mL) | –
12 | SVKPVGSSVVKGTALVKFFG [Shuffled 34] | + (MIC greater than 256 ug/mL) | + (MIC greater than 256 ug/mL) | –
13 | SVKVAKSVIPSAVFAGGKVF [Shuffled 84] | + (MIC greater than 256 ug/mL) | + (MIC greater than 256 ug/mL) | –
14 | SVVFGVASKVVPSVIGKVKT [Peptide 69] | + (MIC greater than 256 ug/mL) | + (MIC greater than 256 ug/mL) | –
15 | TAKVVVFVSFSYVVPKKRAC [Shuffled 2] | + (MIC greater than 256 ug/mL) | + (MIC greater than 256 ug/mL) | –
16 | TLVGVVAKLVATKIGSSPRA [Shuffled 56] | + (MIC greater than 256 ug/mL) | + (MIC greater than 256 ug/mL) | –
17 | VDKGSYLPRPTPPRPIYNRN [Pyrrhocoricin] | – | ++ (MIC greater than 128 ug/mL, not sufficiently soluble to test as 256 ug/mL) | MIC B. cereus (B. cereus): ++ (key: +: MIC greater than 256 ug/mL; ++: MIC greater than 128 ug/mL, not sufficiently soluble to test as 256 ug/mL)
18 | VFSVKGGKPSVVIKVVVAST [Shuffled 69] | + (MIC greater than 256 ug/mL) | + (MIC greater than 256 ug/mL) | –
19 | VIAFAKTKEAKAKLKGQAKG [Shuffled 77] | + (MIC greater than 256 ug/mL) | + (MIC greater than 256 ug/mL) | –
20 | VKDLAKFIAKTVAKQGGCYL [Peptide 33] | ++ (MIC greater than 128 ug/mL, not sufficiently soluble to test as 256 ug/mL) | ++ (MIC greater than 128 ug/mL, not sufficiently soluble to test as 256 ug/mL) | –
21 | VKRAGKGVAVVPSPLFKIVV [Shuffled 45] | + (MIC greater than 256 ug/mL) | + (MIC greater than 256 ug/mL) | –
22 | VKTKCSVPAVVYILVKTFKS [Shuffled 88] | + (MIC greater than 256 ug/mL) | + (MIC greater than 256 ug/mL) | –
23 | VVAKKFFVLVKGLAPVLSPS [Shuffled 42] | + (MIC greater than 256 ug/mL) | + (MIC greater than 256 ug/mL) | –
24 | VVGRVASKVVPSLIGLFTTK [Peptide 65] | + (MIC greater than 256 ug/mL) | + (MIC greater than 256 ug/mL) | –
